Assay results as given in patent US20160287553A1, “TRANSLATION INHIBITORS IN HIGH-DOSE CHEMO- AND/OR HIGH-DOSE RADIOTHERAPY” (DEUTSCHES KREBSFORSCHUNGSZENTRUM, priority 2013, published 2016).
“Also recorded” adds a separate entry of the source.

How the values were obtained:
[1] = tested on: IM-9 (Chronic myeloid leukemia), WT p53; assay: Etoposide-induced cell death in IM-9; type: cell-based, human; conditions: IM-9 (FIG. 5b)
Method: (§1) DNA fragmentation was determined by FACS.
(§2) Since Roc-A-mediated protection of non-malignant cells from DNA-damage-induced cell death is largely p53-dependent, we predicted that Roc-A would not protect cancer cells which have non-functional p53. […] 1997; 19: 243-253), Reh (Zhou et al, loc cit.), SKW6.4 (Barbarotto et al., J Cell Biochem. 2008; 104: 595-605) and NCI-H209 (Fujita et al. Int J Oncol. 1999; 15: 927-934) which have a WT p53 protein.

NK cells = assay: Etoposide-induced apoptosis in NK cells; type: cell-based, human; conditions: NK cells (FIG. 1c)
Method: as §1
(§3) Next, we asked whether Roc-A could also protect other normal primary cells from DNA damage-induced toxicity. To address this question, we examined the protective effect of Roc-A on Etoposide-treated human peripheral blood B cells, NK cells, neutrophils, cardiomyocytes and murine hematopoietic stem and progenitor cells (HSPCs).

[2] = tested on: SKW6.4 (B cell leukemia), WT p53; assay: Etoposide-induced cell death in SKW6.4; type: cell-based, human; conditions: SKW6.4 (FIG. 5b)
Method: as §1, §2

[3] = tested on: protein synthesis in T cells; assay: Translation assay: [35S]methionine incorporation in T cells; type: cell-based, human; conditions: T cells (FIG. 6b)
Method: The relative amount of protein synthesis was determined by measuring the amount of incorporation of ^35S-methionine into the protein. Briefly, cells were pre-cultured in methionine-free medium (supplemented with 10% dialyzed FCS) for 3 h, followed by incubation with 3.5 μCi of ^35S-methionine-labeling mix (PerkinElmer, Waltham, Mass., USA) per 8×10^5 cells for 6 h as indicated. After the treatment, cells were washed twice with ice-cold PBS and lysed in RIPA buffer. 50 μl of each lysate were added to 1 ml of Liquid Scintillation Cocktail solution (Beckman Coulter, Brea, Calif., USA) and the amount of incorporated radioactivity was determined by liquid scintillation counting.
Roc-A has been well documented to inhibit protein translation (Polier et al., Chem Biol. 2012; 19: 1093-1104; Sadlish et al., ACS Chem Biol. 2013; doi:10.1021/cb400158t; Bleumink et al., Cell Death Differ. 2011; 18: 362-370; Cencic et al., PloS one. 2009; 4: e5223). Thus, we expected that Roc-A-mediated suppression of genotoxin-induced p53 upregulation may be regulated by inhibition of p53 protein synthesis.

cardiomyocytes = assay: Etoposide-induced apoptosis in cardiomyocytes; type: cell-based, human; conditions: cardiomyocytes (FIG. 1c)
Method: as §1, §3

[4] = tested on: DND-41 (T cell leukemia), p53 mutated; assay: Etoposide-induced cell death in DND-41; type: cell-based, human; conditions: DND-41 (FIG. 5a)
Method: as §1, §2

ERK = conditions: Polier et al., op. cit.; cited from earlier work
[5] = tested on: Hut-78 (T cell lymphoma), p53 mutated; assay: Etoposide-induced cell death in Hut-78; type: cell-based, human; conditions: Hut-78 (FIG. 5a)
Method: as §1, §2

p53 protein synthesis = assay: Metabolic pulse-labeling and immunoprecipitation of p53; type: cell-based, human; conditions: T cells, after Etoposide treatment, pulse-labeling (FIG. 6c)
Method: Subsequently, cells were washed in ice-cold PBS, lysed in IP buffer (20 mM Tris-HCl, […], 2 mM EDTA, 1% Triton X-100, protease inhibitors) and centrifuged (10,000 g, 20 min) to clear lysates. Aliquots were taken for input control and lysates were incubated overnight with sepharose-coupled protein A beads, anti-p53 antibody (FL-393; Santa Cruz, Heidelberg, Germany) or isotype control antibody (Sigma-Aldrich, Munich, Germany). Two wash-steps with IP buffer preceded boiling of beads in denaturing sample buffer at 95° C. for […]. Incorporation of […] into p53 protein was detected by the phosphoimaging system FLA-7000 IR (Fujifilm Europe GmbH, Düsseldorf, Germany).
Thus, Roc-A suppresses DNA-damage-induced upregulation of p53 at the translational level.

SMILES: COc1ccc([C@@]23Oc4cc(OC)cc(OC)c4[C@]2(O)[C@H](O)[C@H](C(=O)N(C)C)[C@H]3c2ccccc2)cc1 [Roc-A, (1R,2R,3S,3aR,8bS)-1,8b-dihydroxy-6,8-dimethoxy-3a-(4-methoxyphenyl)-N,N-dimethyl-3-phenyl-2,3-dihydro-1H-cyclopenta[b][1]benzofuran-2-carboxamide]
- Protection against Etoposide-induced cell death [1]: protected by Roc-A from Etoposide-induced cell death but to a lesser extent than non-malignant cells
- Protection against Etoposide-induced apoptosis (NK cells): protected
- Protection against Etoposide-induced cell death [2]: protected by Roc-A from Etoposide-induced cell death but to a lesser extent than non-malignant cells
- Inhibition of [35S]methionine incorporation (protein translation) [3]: inhibited [^35S]methionine incorporation at different degrees
- Protection against Etoposide-induced apoptosis (cardiomyocytes): protected
- Protection against Etoposide-induced cell death [4]: did neither protect
- Inhibitory effect on ERK activity / activation (ERK): inhibit ERK activation with different efficacies
- Protection against Etoposide-induced cell death [5]: did neither protect
- [35S]methionine incorporation into the p53 protein (p53 protein synthesis): inhibits p53 protein translation; also recorded: suppressed [^35S]methionine incorporation into the p53 protein
